Test results as given in patent US20230295119A1, “SUBSTITUTED PYRIDINES FOR THE TREATMENT OF INFLAMMATORY DISEASES” (GOSSAMER BIO SERVICES, INC., priority 2020, published 2023).
Like-named read-outs stand apart in the source and are kept apart here. Each block holds one molecule with its values, some of them ahead of it.

Columns and labels:
TYK2 JH2 domain = TYK2 JH2 domain (Homo sapiens (Human), UniProt P29597); experiment: TYK2 JH2 NanoBRET assay; assay type: binding
Description: HEK293T cells were transfected with NanoLuc-TYK2 JH2 Fusion Vector (Promega, customized) using Trans-IT reagent (Mirus, #MIR2700) and incubated for overnight in 37° C. incubator. […] Add 85 µL of cell suspension into white, polypropylene, 96-well plates (Corning, #3600). 90 µL of cells were used for no tracer control samples. 5 µL of diluted NanoBRET K10 tracer (Promega, #CS1810C122) were added to cells to a final concentration of 0.5 µM. Test compounds were diluted into DMSO, and then phenol-free opti-MEM to 10X of final concentration. 10 µL of diluted compounds were added into each well. The cells were incubated with test compound and tracer for 2 hours. 3XNanoBRET® Nano-Glo® Substrate and Extracellular NanoLuc® Inhibitor mixture were prepared and 50 µL of the mixture were added into the wells and mixed. […] NanoBRET signal was determined by using the ratio of acceptor signal and donor signal.

human JAK3 = human JAK3 (Homo sapiens (Human), UniProt P52333); experiment: JAK3 TR-FRET kinase assay; assay type: biochemical; details: JAK3 0.0125 nM
human JAK1 = human JAK1 (Homo sapiens (Human), UniProt P23458); experiment: JAK1 TR-FRET kinase assay; assay type: biochemical; details: TR-FRET, JAK1 2.5 nM
human JAK2 = human JAK2 (Homo sapiens (Human), UniProt O60674); experiment: JAK2 TR-FRET kinase assay; assay type: biochemical; details: JAK2 0.025 nM
[1] = HEK293T cells, Table 19, read-out: IC50 (nM), TYK2 activity

Chain of TYK2 JH2 domain (P29597 589-875): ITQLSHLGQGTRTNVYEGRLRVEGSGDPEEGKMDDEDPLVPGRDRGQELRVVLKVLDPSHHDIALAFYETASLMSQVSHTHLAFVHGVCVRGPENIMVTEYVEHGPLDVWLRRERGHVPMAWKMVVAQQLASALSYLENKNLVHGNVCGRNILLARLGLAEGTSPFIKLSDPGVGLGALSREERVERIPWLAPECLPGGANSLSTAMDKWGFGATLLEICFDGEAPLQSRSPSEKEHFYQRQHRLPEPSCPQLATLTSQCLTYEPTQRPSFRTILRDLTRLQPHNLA
Chain of human JAK2 (O60674 whole entry): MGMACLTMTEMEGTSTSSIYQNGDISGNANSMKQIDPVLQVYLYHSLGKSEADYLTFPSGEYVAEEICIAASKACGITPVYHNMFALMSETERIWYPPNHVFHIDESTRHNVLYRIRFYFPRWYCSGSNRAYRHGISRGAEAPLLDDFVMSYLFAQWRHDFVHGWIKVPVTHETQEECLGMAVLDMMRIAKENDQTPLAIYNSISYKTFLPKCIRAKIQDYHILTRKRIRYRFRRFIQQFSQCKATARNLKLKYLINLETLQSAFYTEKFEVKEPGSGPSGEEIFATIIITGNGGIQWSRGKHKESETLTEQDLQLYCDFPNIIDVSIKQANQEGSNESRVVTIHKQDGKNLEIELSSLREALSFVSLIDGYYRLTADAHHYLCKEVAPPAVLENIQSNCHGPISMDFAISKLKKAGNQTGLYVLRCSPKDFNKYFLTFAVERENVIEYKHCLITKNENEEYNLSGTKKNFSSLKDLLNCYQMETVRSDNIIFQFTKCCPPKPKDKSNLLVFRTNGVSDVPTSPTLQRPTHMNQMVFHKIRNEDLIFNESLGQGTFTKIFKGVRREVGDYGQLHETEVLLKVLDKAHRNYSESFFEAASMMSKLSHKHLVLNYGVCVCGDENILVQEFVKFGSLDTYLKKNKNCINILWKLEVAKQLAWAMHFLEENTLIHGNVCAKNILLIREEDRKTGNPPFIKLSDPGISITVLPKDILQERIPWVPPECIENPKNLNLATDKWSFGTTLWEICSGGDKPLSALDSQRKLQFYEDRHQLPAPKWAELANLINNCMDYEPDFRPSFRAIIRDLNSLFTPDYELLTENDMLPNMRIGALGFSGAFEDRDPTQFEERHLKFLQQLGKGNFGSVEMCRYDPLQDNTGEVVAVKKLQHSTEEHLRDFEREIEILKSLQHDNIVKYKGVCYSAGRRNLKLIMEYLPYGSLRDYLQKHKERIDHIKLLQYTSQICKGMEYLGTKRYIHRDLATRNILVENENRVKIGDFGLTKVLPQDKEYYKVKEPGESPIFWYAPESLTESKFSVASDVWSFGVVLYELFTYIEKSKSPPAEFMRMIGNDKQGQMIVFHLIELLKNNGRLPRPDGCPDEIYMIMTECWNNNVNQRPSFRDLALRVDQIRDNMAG
Chain of human JAK1 (P23458 whole entry): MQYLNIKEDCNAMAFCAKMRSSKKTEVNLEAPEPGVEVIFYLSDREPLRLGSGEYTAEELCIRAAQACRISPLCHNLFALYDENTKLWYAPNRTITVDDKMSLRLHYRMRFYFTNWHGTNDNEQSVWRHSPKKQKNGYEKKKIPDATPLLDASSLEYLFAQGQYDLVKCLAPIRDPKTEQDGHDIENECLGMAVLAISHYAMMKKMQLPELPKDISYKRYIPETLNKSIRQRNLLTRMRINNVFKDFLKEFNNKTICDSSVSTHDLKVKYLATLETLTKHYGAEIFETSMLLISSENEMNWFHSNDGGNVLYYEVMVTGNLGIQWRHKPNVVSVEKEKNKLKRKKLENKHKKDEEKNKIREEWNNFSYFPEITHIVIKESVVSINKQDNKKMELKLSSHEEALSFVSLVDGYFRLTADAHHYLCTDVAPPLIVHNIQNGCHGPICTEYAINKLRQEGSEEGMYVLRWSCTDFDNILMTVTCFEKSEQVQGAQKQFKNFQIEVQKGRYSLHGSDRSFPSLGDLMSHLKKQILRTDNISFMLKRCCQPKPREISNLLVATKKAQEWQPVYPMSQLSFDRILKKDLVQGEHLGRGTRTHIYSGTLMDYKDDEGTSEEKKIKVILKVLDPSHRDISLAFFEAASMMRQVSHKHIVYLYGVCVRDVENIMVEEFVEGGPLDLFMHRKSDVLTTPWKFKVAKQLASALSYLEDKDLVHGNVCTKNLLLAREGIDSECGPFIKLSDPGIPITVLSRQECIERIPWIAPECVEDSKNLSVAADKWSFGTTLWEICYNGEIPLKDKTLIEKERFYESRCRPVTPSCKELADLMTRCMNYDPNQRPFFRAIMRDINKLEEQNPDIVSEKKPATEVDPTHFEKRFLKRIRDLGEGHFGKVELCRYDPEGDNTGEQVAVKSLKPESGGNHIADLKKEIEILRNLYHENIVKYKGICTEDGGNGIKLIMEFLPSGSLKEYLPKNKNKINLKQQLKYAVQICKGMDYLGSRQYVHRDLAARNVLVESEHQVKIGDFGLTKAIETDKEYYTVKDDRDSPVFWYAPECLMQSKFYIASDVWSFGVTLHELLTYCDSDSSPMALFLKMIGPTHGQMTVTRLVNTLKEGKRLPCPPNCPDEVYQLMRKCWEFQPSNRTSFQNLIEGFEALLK
Chain of human JAK3 (P52333 whole entry): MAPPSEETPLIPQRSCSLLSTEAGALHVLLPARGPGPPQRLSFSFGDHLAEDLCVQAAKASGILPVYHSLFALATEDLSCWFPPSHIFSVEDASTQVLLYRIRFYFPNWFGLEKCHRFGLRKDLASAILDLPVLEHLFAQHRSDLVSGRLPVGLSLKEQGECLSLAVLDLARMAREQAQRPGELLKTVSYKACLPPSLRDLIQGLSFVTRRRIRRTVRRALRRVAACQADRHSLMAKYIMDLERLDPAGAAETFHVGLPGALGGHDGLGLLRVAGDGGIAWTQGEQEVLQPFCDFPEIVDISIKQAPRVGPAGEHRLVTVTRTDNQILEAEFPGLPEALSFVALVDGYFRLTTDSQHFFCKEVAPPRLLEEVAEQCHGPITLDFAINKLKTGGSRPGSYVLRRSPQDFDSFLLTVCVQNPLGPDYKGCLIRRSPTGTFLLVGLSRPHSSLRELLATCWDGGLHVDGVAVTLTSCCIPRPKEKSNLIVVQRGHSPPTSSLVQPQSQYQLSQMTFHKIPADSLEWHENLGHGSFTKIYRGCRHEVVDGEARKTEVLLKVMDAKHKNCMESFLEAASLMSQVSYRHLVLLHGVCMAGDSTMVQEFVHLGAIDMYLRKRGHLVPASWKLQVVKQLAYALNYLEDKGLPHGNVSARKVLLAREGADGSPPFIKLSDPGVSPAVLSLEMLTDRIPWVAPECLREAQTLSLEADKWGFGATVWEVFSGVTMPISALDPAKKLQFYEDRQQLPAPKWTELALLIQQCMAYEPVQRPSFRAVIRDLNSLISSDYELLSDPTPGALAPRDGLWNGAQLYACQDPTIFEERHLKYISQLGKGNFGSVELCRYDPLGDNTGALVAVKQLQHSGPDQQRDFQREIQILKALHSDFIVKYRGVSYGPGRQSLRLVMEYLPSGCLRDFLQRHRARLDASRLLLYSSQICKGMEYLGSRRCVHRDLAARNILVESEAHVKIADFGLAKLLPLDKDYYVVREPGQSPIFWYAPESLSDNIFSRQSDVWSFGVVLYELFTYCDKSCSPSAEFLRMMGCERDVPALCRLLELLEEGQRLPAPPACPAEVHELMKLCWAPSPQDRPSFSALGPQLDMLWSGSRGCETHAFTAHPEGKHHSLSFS

SMILES: COc1c(Nc2cc(NC(=O)C3CC3)ncc2C(C)=O)cccc1-c1ncn(C)n1 [Compound 1A, N-(5-acetyl-4-((2-methoxy-3-(1-methyl-1H-1,2,4-triazol-3-yl)phenyl)amino)pyridin-2-yl)cyclopropanecarboxamide]
IC50 (TYK2 JH2 domain; [1]): < 5 nM

SMILES: COc1c(Nc2cc(NC(=O)OC(C)(C)C)ncc2C(C)=O)cccc1-c1ncn(C)n1 [Compound 1D]
IC50 (TYK2 JH2 domain; [1]): 50 to 500 nM

SMILES: COc1c(Nc2cc(NC(C)=O)ncc2C(C)=O)cccc1-c1ncn(C)n1 [Compound 1G]
IC50 (TYK2 JH2 domain; [1]): 5 to 50 nM

SMILES: CCC(=O)Nc1cc(Nc2cccc(-c3ncn(C)n3)c2OC)c(C(C)=O)cn1 [Compound 1H]
IC50 (TYK2 JH2 domain; [1]): 5 to 50 nM

SMILES: CCCC(=O)Nc1cc(Nc2cccc(-c3ncn(C)n3)c2OC)c(C(C)=O)cn1 [Compound 1I]
IC50 (TYK2 JH2 domain; [1]): < 5 nM

SMILES: COc1c(Nc2cc(NC(=O)C3CCC3)ncc2C(C)=O)cccc1-c1ncn(C)n1 [Compound 1J]
IC50 (TYK2 JH2 domain; [1]): 5 to 50 nM

SMILES: COc1c(Nc2cc(NC(=O)[C@@H]3C[C@@H]3F)ncc2C(C)=O)cccc1-c1ncn(C)n1 [Compound 1K]
IC50 (TYK2 JH2 domain; [1]): < 5 nM

SMILES: COc1c(Nc2cc(NC(=O)[C@H]3C[C@H]3F)ncc2C(C)=O)cccc1-c1ncn(C)n1 [Compound 1L]
IC50 (TYK2 JH2 domain; [1]): 5 to 50 nM

SMILES: COc1c(Nc2cc(NC(=O)CN(C)C)ncc2C(C)=O)cccc1-c1ncn(C)n1 [Compound 1M]
IC50 (TYK2 JH2 domain; [1]): 50 to 500 nM

SMILES: COC(=O)Nc1cc(Nc2cccc(-c3ncn(C)n3)c2OC)c(C(C)=O)cn1 [Compound 1N]
IC50 (TYK2 JH2 domain; [1]): 50 to 500 nM

SMILES: COc1c(Nc2cc(NC(=O)CN3CCOCC3)ncc2C(C)=O)cccc1-c1ncn(C)n1 [Compound 1O]
IC50 (TYK2 JH2 domain; [1]): 50 to 500 nM

SMILES: COc1c(Nc2cc(NC(=O)N(C)C)ncc2C(C)=O)cccc1-c1ncn(C)n1 [Compound 1P]
IC50 (TYK2 JH2 domain; [1]): 50 to 500 nM

SMILES: COc1c(Nc2cc(N)ncc2C(C)=O)cccc1-c1ncn(C)n1 [Compound 2, 1-(6-amino-4-((2-methoxy-3-(1-methyl-1H-1,2,4-triazol-3-yl)phenyl)amino)pyridin-3-yl)ethan-1-one]
IC50 (TYK2 JH2 domain; [1]): ≥ 500 nM

SMILES: COC(=O)c1cnc(NC(=O)C2CC2)cc1Nc1cccc(-c2ncn(C)n2)c1OC [Compound 3, methyl 6-(cyclopropanecarboxamido)-4-((2-methoxy-3-(1-methyl-1H-1,2,4-triazol-3-yl)phenyl)amino)nicotinate]
IC50 (TYK2 JH2 domain; [1]): < 5 nM

SMILES: CCC(=O)c1cnc(Nc2cc(C(C)NC)ncn2)cc1Nc1cccc(-c2ncn(C)n2)c1OC (stereo not shown) [Compound 9PPPP]
IC50 (human JAK2): 50 to 500 nM

SMILES: CCC(=O)c1cnc(Nc2ccc(CN3CCN(C)CC3)nn2)cc1Nc1cccc(-c2ncn(C)n2)c1OC [Compound 9PPP]
IC50 (TYK2 JH2 domain; Table 20, read-out: TYK2 IC50): 5 to 50 nM | IC50 (human JAK2): 50 to 500 nM

SMILES: CCC(=O)c1cnc(Nc2cnc(O[C@@H]3CCN(CC)C3)cn2)cc1Nc1cccc(-c2ncn(C)n2)c1OC [Compound 18DDD]
IC50 (TYK2 JH2 domain; Table 20, read-out: TYK2 IC50): 5 to 50 nM

Further lines, results first:

IC50 (TYK2 JH2 domain; [1]): ≥ 500 nM
SMILES: COc1c(Nc2cc(Nc3ccc(F)cc3)ncc2C(C)=O)cccc1-c1ncn(C)n1 [Compound 7B]

IC50 (TYK2 JH2 domain; [1]): < 5 nM
SMILES: COc1c(Nc2cc(Nc3ccccn3)ncc2C(C)=O)cccc1-c1ncn(C)n1 [Compound 7C]

IC50 (TYK2 JH2 domain; [1]): < 5 nM
SMILES: COc1c(Nc2cc(Nc3cc(C)ccn3)ncc2C(C)=O)cccc1-c1ncn(C)n1 [Compound 7D]

IC50 (TYK2 JH2 domain; [1]): < 5 nM
SMILES: COc1ccnc(Nc2cc(Nc3cccc(-c4ncn(C)n4)c3OC)c(C(C)=O)cn2)c1 [Compound 7E]

IC50 (TYK2 JH2 domain; [1]): < 5 nM
SMILES: COc1c(Nc2cc(Nc3cc(C#N)ccn3)ncc2C(C)=O)cccc1-c1ncn(C)n1 [Compound 7F]

IC50 (TYK2 JH2 domain; [1]): 5 to 50 nM
SMILES: COc1c(Nc2cc(Nc3ncccc3F)ncc2C(C)=O)cccc1-c1ncn(C)n1 [Compound 7G]

IC50 (TYK2 JH2 domain; [1]): < 5 nM
SMILES: COc1c(Nc2cc(Nc3ccc(F)cn3)ncc2C(C)=O)cccc1-c1ncn(C)n1 [Compound 7H]

IC50 (TYK2 JH2 domain; [1]): < 5 nM
SMILES: COc1ccc(Nc2cc(Nc3cccc(-c4ncn(C)n4)c3OC)c(C(C)=O)cn2)nc1 [Compound 7I]

IC50 (TYK2 JH2 domain; [1]): < 5 nM
SMILES: COc1c(Nc2cc(Nc3cccc(C)n3)ncc2C(C)=O)cccc1-c1ncn(C)n1 [Compound 7J]

IC50 (TYK2 JH2 domain; [1]): < 5 nM
SMILES: COc1cccc(Nc2cc(Nc3cccc(-c4ncn(C)n4)c3OC)c(C(C)=O)cn2)n1 [Compound 7K]

IC50 (TYK2 JH2 domain; [1]): < 5 nM
SMILES: COc1c(Nc2cc(Nc3cc(C)c(F)cn3)ncc2C(C)=O)cccc1-c1ncn(C)n1 [Compound 7L]

IC50 (TYK2 JH2 domain; [1]): < 5 nM
SMILES: COc1c(Nc2cc(Nc3cc(C)c(Cl)cn3)ncc2C(C)=O)cccc1-c1ncn(C)n1 [Compound 7M]

IC50 (TYK2 JH2 domain; [1]): < 5 nM
SMILES: COc1c(Nc2cc(Nc3ccc(N4CCOCC4)cn3)ncc2C(C)=O)cccc1-c1ncn(C)n1 [Compound 7N]

IC50 (TYK2 JH2 domain; [1]): 50 to 500 nM
SMILES: COc1c(Nc2cc(Nc3ncccn3)ncc2C(C)=O)cccc1-c1ncn(C)n1 [Compound 7O]

IC50 (TYK2 JH2 domain; [1]): 50 to 500 nM
SMILES: COc1c(Nc2cc(Nc3ncc(F)cn3)ncc2C(C)=O)cccc1-c1ncn(C)n1 [Compound 7P]

IC50 (TYK2 JH2 domain; [1]): < 5 nM
SMILES: COc1c(Nc2cc(Nc3cc(C)ncn3)ncc2C(C)=O)cccc1-c1ncn(C)n1 [Compound 7Q]

IC50 (TYK2 JH2 domain; [1]): < 5 nM
SMILES: COc1c(Nc2cc(Nc3ccnc(C)n3)ncc2C(C)=O)cccc1-c1ncn(C)n1 [Compound 7R]

IC50 (TYK2 JH2 domain; [1]): < 5 nM
SMILES: CCOc1ccc(Nc2cc(Nc3cccc(-c4ncn(C)n4)c3OC)c(C(C)=O)cn2)nn1 [Compound 7S]

IC50 (TYK2 JH2 domain; [1]): 50 to 500 nM
SMILES: COc1c(Nc2cc(Nc3cnn(C)c3)ncc2C(C)=O)cccc1-c1ncn(C)n1 [Compound 7T]

IC50 (TYK2 JH2 domain; [1]): < 5 nM
SMILES: COc1c(Nc2cc(Nc3ccn(C)n3)ncc2C(C)=O)cccc1-c1ncn(C)n1 [Compound 7U]

IC50 (TYK2 JH2 domain; Table 20, read-out: TYK2 IC50): < 5 nM | IC50 (human JAK3): 50 to 500 nM | IC50 (human JAK1): ≥ 500 nM | IC50 (human JAK2): 50 to 500 nM
SMILES: CCC(=O)c1cnc(Nc2ccc(C(N)=O)cn2)cc1Nc1cccc(-c2ncn(C)n2)c1OC [Compound 8A, 6-((4-((2-methoxy-3-(1-methyl-1H-1,2,4-triazol-3-yl)phenyl)amino)-5-propionylpyridin-2-yl)amino)nicotinamide]

IC50 (TYK2 JH2 domain; Table 20, read-out: TYK2 IC50): 50 to 500 nM | IC50 (human JAK3): ≥ 500 nM | IC50 (human JAK1): ≥ 500 nM | IC50 (human JAK2): ≥ 500 nM
SMILES: CCC(=O)c1cnc(Nc2ccc(C(=O)O)cn2)cc1Nc1cccc(-c2ncn(C)n2)c1OC [Compound 8B]

IC50 (TYK2 JH2 domain; Table 20, read-out: TYK2 IC50): < 5 nM | IC50 (human JAK3): ≥ 500 nM | IC50 (human JAK1): ≥ 500 nM | IC50 (human JAK2): ≥ 500 nM
SMILES: CCC(=O)c1cnc(Nc2ccc(C(=O)NC)cn2)cc1Nc1cccc(-c2ncn(C)n2)c1OC [Compound 8C]

IC50 (TYK2 JH2 domain; Table 20, read-out: TYK2 IC50): < 5 nM | IC50 (human JAK3): ≥ 500 nM | IC50 (human JAK1): ≥ 500 nM | IC50 (human JAK2): ≥ 500 nM
SMILES: CCC(=O)c1cnc(Nc2ccc(C(=O)N(C)C)cn2)cc1Nc1cccc(-c2ncn(C)n2)c1OC [Compound 8D]

IC50 (TYK2 JH2 domain; Table 20, read-out: TYK2 IC50): ≥ 500 nM | IC50 (human JAK3): ≥ 500 nM | IC50 (human JAK1): ≥ 500 nM | IC50 (human JAK2): ≥ 500 nM
SMILES: CCC(=O)c1cnc(Nc2cc(C(=O)O)ccn2)cc1Nc1cccc(-c2ncn(C)n2)c1OC [Compound 8E]

IC50 (TYK2 JH2 domain; Table 20, read-out: TYK2 IC50): < 5 nM | IC50 (human JAK3): ≥ 500 nM | IC50 (human JAK1): ≥ 500 nM | IC50 (human JAK2): ≥ 500 nM
SMILES: CCC(=O)c1cnc(Nc2cc(C(N)=O)ccn2)cc1Nc1cccc(-c2ncn(C)n2)c1OC [Compound 8F]

IC50 (TYK2 JH2 domain; Table 20, read-out: TYK2 IC50): < 5 nM | IC50 (human JAK3): ≥ 500 nM | IC50 (human JAK1): ≥ 500 nM | IC50 (human JAK2): ≥ 500 nM
SMILES: CCC(=O)c1cnc(Nc2cc(C(=O)NC)ccn2)cc1Nc1cccc(-c2ncn(C)n2)c1OC [Compound 8G]

IC50 (human JAK3): ≥ 500 nM | IC50 (human JAK1): ≥ 500 nM | IC50 (human JAK2): ≥ 500 nM
SMILES: CCC(=O)c1cnc(Nc2ccc(S(=O)(=O)N(C)C)cn2)cc1Nc1cccc(-c2ncn(C)n2)c1OC [Compound 13D]

IC50 (TYK2 JH2 domain; Table 20, read-out: TYK2 IC50): 5 to 50 nM
SMILES: CCC(=O)c1cnc(Nc2cnc(C(F)(F)CN)cn2)cc1Nc1cccc(-c2ncn(C)n2)c1OC [Compound 19A, 1-(6-((5-(2-amino-1,1-difluoroethyl)pyrazin-2-yl)amino)-4-((2-methoxy-3-(1-methyl-1H-1,2,4-triazol-3-yl)phenyl)amino)pyridin-3-yl)propan-1-one]
